Among the test systems are ACHN renal; DU-145 prostate; HT29 colon; MOLT-4 leukemia; NCI-H522 lung; OVCAR-5 ovarian; SK-MEL-5 melanoma; SK-OV-3 ovarian; UO-31 renal; PC-3 prostate.
Common to all, as to assay: DTP human tumour cell line panel, 48 h

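A five-concentration, 48-hour dose response in 96-well plates underlies each endpoint, interpolated linearly between surrounding concentrations. GI50: concentration for 50% inhibition of growth. At the TGI there is no net growth.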

This note sets out measurements from PubChem BioAssay (NCI).

The term GI50 denotes the concentration at which growth is held to half of that of the control. The TGI is the concentration at which net growth stops.

`CCOC(=O)C1=C(c2ccccc2)N(c2ccc(OC)cc2)[C@]2(C#N)C(O)=C(Cl)C(Cl)=C(O)[C@]12C#N`: the GI50 in the experiment with ACHN renal was 19.7 µM; in the experiment with DU-145 prostate, 31.9 µM; with HT29 colon, 34.8 µM; in the experiment on MOLT-4 leukemia, 21.9 µM; with NCI-H522 lung it was 21.3 µM; in the experiment with OVCAR-5 ovarian, 18.5 µM. For the same compound, the GI50 was 22.1 µM with SK-MEL-5 melanoma, 23.4 µM with SK-OV-3 ovarian and 24.6 µM with UO-31 renal. The TGI with ACHN renal was 42.1 µM; in the experiment on DU-145 prostate it was more than 100 µM; in the experiment with HT29 colon it was more than 100 µM; in the experiment on MOLT-4 leukemia it was 56.9 µM; with NCI-H522 lung it was 46.6 µM; in the experiment on OVCAR-5 ovarian, 39 µM. The TGI in the experiment with SK-MEL-5 melanoma was 51.9 µM; in the experiment with SK-OV-3 ovarian, 62.7 µM; with UO-31 renal, 68 µM.
`NC(=O)NCCSC1CCCCC1O` (stereo not given): the TGI with ACHN renal was more than 100 µM; in the experiment on DU-145 prostate, more than 100 µM; with HT29 colon, more than 100 µM; in the experiment on MOLT-4 leukemia, 78 µM; in the experiment on NCI-H522 lung, more than 100 µM; with OVCAR-5 ovarian, more than 100 µM. The TGI with PC-3 prostate, in the experiment on SK-MEL-5 melanoma, with SK-OV-3 ovarian and in the experiment with UO-31 renal was more than 100 µM each time.
In the case of `COc1ccc2[nH]cc(-c3nc(-c4c[nH]c5ccncc45)cs3)c2c1`, the GI50 is 1.66 µM in the experiment with ACHN renal; 2.73 µM in the experiment with DU-145 prostate; 2.23 µM with HT29 colon; 1.81 µM in the experiment with NCI-H522 lung; 2.37 µM in the experiment on OVCAR-5 ovarian; 2.13 µM with PC-3 prostate. The GI50 is 1.65 µM in the experiment with SK-MEL-5 melanoma, 13.7 µM in the experiment on SK-OV-3 ovarian and 1.75 µM in the experiment on UO-31 renal. Besides, the concentration for total growth inhibition (TGI) in the experiment with ACHN renal was 3.14 µM; in the experiment on DU-145 prostate, 8.57 µM; in the experiment with HT29 colon, 4.87 µM; with NCI-H522 lung, 3.65 µM; in the experiment on OVCAR-5 ovarian, 4.74 µM; in the experiment with PC-3 prostate it was 5.23 µM. Also, the results for the TGI in the experiment on SK-MEL-5 melanoma, in the experiment with SK-OV-3 ovarian and in the experiment on UO-31 renal were 3.05 µM, 26.6 µM and 3.46 µM, respectively.
Consider `CO/N=C(/COc1c(-c2ccccc2)oc2ccccc2c1=O)c1ccc(F)cc1`, for which the GI50 is 31.8 µM in the experiment with ACHN renal; more than 100 µM in the experiment with DU-145 prostate; more than 100 µM in the experiment with HT29 colon; 36.4 µM in the experiment on NCI-H522 lung; more than 100 µM in the experiment with OVCAR-5 ovarian; 31.5 µM with PC-3 prostate. The GI50 in the experiment on SK-MEL-5 melanoma is more than 100 µM; with SK-OV-3 ovarian, 62.4 µM; in the experiment with UO-31 renal, more than 100 µM. In addition, the TGI in the experiment on ACHN renal, with DU-145 prostate, in the experiment on HT29 colon, with NCI-H522 lung, in the experiment with OVCAR-5 ovarian and in the experiment with PC-3 prostate was more than 100 µM throughout. The TGI with SK-MEL-5 melanoma, with SK-OV-3 ovarian and in the experiment with UO-31 renal was more than 100 µM in each case.
Regarding `N/C(=N\c1nc2ccccc2s1)NC(=O)Nc1cccc2ccccc12`, the GI50 is 0.356 µM in the experiment with DU-145 prostate; 0.19 µM in the experiment on HT29 colon; 0.472 µM in the experiment with MOLT-4 leukemia; 0.0775 µM in the experiment on NCI-H522 lung; 0.696 µM with OVCAR-5 ovarian; 0.318 µM in the experiment on PC-3 prostate. Also, the GI50 was 0.505 µM in the experiment with SK-MEL-5 melanoma and 0.802 µM with UO-31 renal. In addition, the TGI with DU-145 prostate is 4.2 µM; with HT29 colon, more than 100 µM; in the experiment on MOLT-4 leukemia it was more than 100 µM; in the experiment on OVCAR-5 ovarian it was more than 100 µM; in the experiment with PC-3 prostate it was more than 100 µM; with SK-MEL-5 melanoma it was more than 100 µM. In the experiment with UO-31 renal, this compound came in with a TGI of more than 100 µM.
For `Cc1cn2c(=O)n(c1=O)Cc1ccccc1C2`, the GI50 in the experiment with ACHN renal was more than 100 µM; in the experiment on DU-145 prostate, more than 100 µM; in the experiment with HT29 colon it was more than 100 µM; in the experiment on NCI-H522 lung, 43.4 µM; in the experiment with OVCAR-5 ovarian, more than 100 µM; in the experiment with PC-3 prostate, more than 100 µM. Also, the GI50 with SK-MEL-5 melanoma is 83.1 µM; in the experiment with SK-OV-3 ovarian it was 5.79 µM; with UO-31 renal, 32.3 µM. For the same compound, the TGI in the experiment on ACHN renal, in the experiment on DU-145 prostate, with HT29 colon, in the experiment on NCI-H522 lung, in the experiment on OVCAR-5 ovarian and in the experiment on PC-3 prostate was more than 100 µM each time. The TGI in the experiment with SK-MEL-5 melanoma, in the experiment on SK-OV-3 ovarian and in the experiment on UO-31 renal was more than 100 µM throughout.
Turning to `C=C1C(=O)O[C@H]2C[C@@H]1CCC1(C)OC1CC/C(C)=C/CC[C@H]2C` (stereo not given in full), the GI50 in the experiment with ACHN renal is more than 100 µM; in the experiment on HT29 colon it was 20.1 µM; with MOLT-4 leukemia it was 18 µM; in the experiment with NCI-H522 lung, 37.9 µM; in the experiment on OVCAR-5 ovarian, 15.9 µM; in the experiment with PC-3 prostate, 19.4 µM. The GI50 is 17.3 µM with SK-MEL-5 melanoma, 19.3 µM in the experiment with SK-OV-3 ovarian and 29.8 µM with UO-31 renal. Further, the TGI with ACHN renal was more than 100 µM; in the experiment with HT29 colon, 34.3 µM; in the experiment on MOLT-4 leukemia, 33.5 µM; in the experiment with NCI-H522 lung, more than 100 µM; in the experiment on OVCAR-5 ovarian, 30 µM; in the experiment with PC-3 prostate, 33.5 µM. The TGI was found to be 31.5 µM with SK-MEL-5 melanoma, 37.1 µM in the experiment on SK-OV-3 ovarian and 86.6 µM in the experiment with UO-31 renal.
For the compound `CN1C(=O)C(c2c[nH]c3ccccc23)=C(c2c(-c3c[nH]c4ccccc34)[nH]c3ccccc23)C1=O`, the GI50 in the experiment on ACHN renal was 3.4 µM; in the experiment with DU-145 prostate it was 3 µM; in the experiment on HT29 colon, 2.73 µM; with NCI-H522 lung, 12.3 µM; in the experiment with OVCAR-5 ovarian it was 2.85 µM; with PC-3 prostate, 3.11 µM. Also, the GI50 is 3.14 µM with SK-OV-3 ovarian and 15.2 µM with UO-31 renal. Moreover, the TGI was 13.9 µM with ACHN renal; 12.2 µM in the experiment on DU-145 prostate; 8.36 µM with HT29 colon; more than 100 µM in the experiment on NCI-H522 lung; 11.3 µM with OVCAR-5 ovarian; 17.3 µM in the experiment with PC-3 prostate. The TGI was 13 µM in the experiment on SK-OV-3 ovarian and more than 100 µM in the experiment with UO-31 renal.
As to `CO/C(=N\N=C\c1cccc(C(F)(F)F)c1)c1ccncc1`, the GI50 is 27.3 µM in the experiment on ACHN renal; 33.6 µM in the experiment on DU-145 prostate; 3.47 µM in the experiment on HT29 colon; 6.41 µM in the experiment with NCI-H522 lung; 6.09 µM with UO-31 renal. The TGI in the experiment on ACHN renal is more than 100 µM; in the experiment on DU-145 prostate, more than 100 µM; in the experiment on HT29 colon, 19 µM; in the experiment on NCI-H522 lung it was 30.3 µM; with OVCAR-5 ovarian, more than 100 µM; in the experiment on PC-3 prostate, more than 100 µM. Further, the TGI in the experiment with SK-MEL-5 melanoma worked out at 32.4 µM; with SK-OV-3 ovarian it was 99.1 µM; with UO-31 renal, 40.8 µM.
